Results published in patent publication US9073876B2, “Flap modulators” (JANSSEN PHARMACEUTICA NV, priority 2013, dated 2015).
Counter-ions that a name gives are not always drawn.

What was measured:
[1] = target: human FLAP (Homo sapiens (Human), UniProt P20292); assay: FLAP binding assay (HTRF); conditions: human FLAP-containing membranes, HTRF format; average of two assay plates, duplicates; read-out: FLAP Binding wild type HTRF Ki
Procedure, shortened: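 Samples were run in duplicate on each of two assay plates, the results were averaged, and the signal was expressed as an HTRF ratio.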

[2] = system: leukotriene pathway in human whole blood (LTB4 levels); assay: Human whole blood assay (LTB4); type: cell-based; conditions: human whole blood diluted 1:1 in RPMI, stimulated with calcium ionophore A23187; single replicate
Procedure, shortened: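 Heparinised human whole blood diluted 1:1 in RPMI, pre-incubated 15 min at 37° Celsius with compound, then stimulated with A23187 (7 μg/mL) for 30 min at 37° Celsius. Plasma LTB4 measured by immunoassay kit; IC50 from 4-parameter fit; single replicate per plate, at least one healthy donor.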

Sequence of human FLAP (P20292 whole entry): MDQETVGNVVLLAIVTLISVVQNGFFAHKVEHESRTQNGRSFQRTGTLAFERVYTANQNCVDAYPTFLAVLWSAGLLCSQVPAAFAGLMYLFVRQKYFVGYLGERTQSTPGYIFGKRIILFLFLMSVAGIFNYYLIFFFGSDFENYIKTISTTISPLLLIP

Q: Which results are given for `NC(=O)c1ccnc(Oc2c(C3CCC3)ccc(-c3cnc(N)cn3)c2F)n1` [Example 157, 2-[3-(5-Aminopyrazin-2-yl)-6-cyclobutyl-2-fluorophenoxy]pyrimidine-4-carboxamide]?
A: Ki [1]: 20.6 nM; IC50 [2]: 109 nM

Q: How did the Ki [1] turn out when `Nc1cnc(Oc2c(C3CCC3)ccc(-c3cnc(N)cn3)c2F)nc1` [Example 158, 2-[3-(5-Aminopyrazin-2-yl)-6-cyclobutyl-2-fluorophenoxy]pyrimidin-5-amine] was run?
A: Its Ki is 7.8 nM.

Q: What about the IC50 [2] of the same compound?
A: Its IC50 is 35.9 nM.

Q: `COc1c(C2CCC2)ccc(-c2cnc(N)nc2)c1F` [Example 159, 5-(4-cyclobutyl-2-fluoro-3-methoxyphenyl)pyrimidin-2-amine] was tested. Which Ki [1] did it give?
A: Its Ki is 55.7 nM.

Q: And the IC50 [2]?
A: The IC50 was 3310 nM.

Q: Which Ki [1] does the source give for `Nc1ncc(-c2ccc(C3CCC3)c(Oc3ncccn3)c2F)cn1` [Example 160, 5-[4-Cyclobutyl-2-fluoro-3-(pyrimidin-2-yloxy)phenyl]pyrimidin-2-amine] here?
A: The Ki was 94.7 nM.

Q: And the IC50 [2]?
A: The IC50 was 494 nM.

Q: For `Nc1ccnc(Oc2c(C3CCC3)ccc(-c3cnc(N)nc3)c2F)n1` [Example 161, 5-{3-[(4-Aminopyrimidin-2-yl)oxy]-4-cyclobutyl-2-fluorophenyl}pyrimidin-2-amine], which Ki [1] is on record?
A: Its Ki is 22.2 nM.

Q: What about the IC50 [2] of the same compound?
A: Its IC50 is 88 nM.

Q: Which Ki [1] does the source give for `COCc1cc(Oc2c(C3CCC3)ccc(-c3cnc(N)nc3)c2F)nc(N)n1` [Example 162, 4-[3-(2-Aminopyrimidin-5-yl)-6-cyclobutyl-2-fluorophenoxy]-6-(methoxymethyl)pyrimidin-2-amine] here?
A: Its Ki is 7.2 nM.

Q: And the IC50 [2]?
A: The IC50 was 124 nM.

Q: How did the Ki [1] turn out when `Cc1ccnc(Oc2c(C3CCC3)ccc(-c3cnc(N)nc3)c2F)n1` [Example 163, 5-{4-Cyclobutyl-2-fluoro-3-[(4-methylpyrimidin-2-yl)oxy]phenyl}pyrimidin-2-amine] was run?
A: The Ki was 70.4 nM.

Q: And the IC50 [2]?
A: The IC50 was 494 nM.

Q: What does the source list for `Nc1cc(Oc2c(C3CCC3)ccc(-c3cnc(N)nc3)c2F)ncn1` [Example 164, 5-{3-[(6-Aminopyrimidin-4-yl)oxy]-4-cyclobutyl-2-fluorophenyl}pyrimidin-2-amine]?
A: Ki [1]: 36.8 nM; IC50 [2]: 118 nM

Q: Which results are given for `CC(C)c1ccnc(Oc2c(C3CCC3)ccc(-c3cnc(N)nc3)c2F)n1` [Example 165, 5-(4-Cyclobutyl-2-fluoro-3-{[4-(1-methylethyl)pyrimidin-2-yl]oxy}phenyl)pyrimidin-2-amine]?
A: Ki [1]: 5.6 nM; IC50 [2]: 304 nM

Q: Which results are given for `Nc1ncc(-c2ccc(C3CCC3)c(Oc3ccnc(N)n3)c2F)cn1` [Example 166, 4-[3-(2-Aminopyrimidin-5-yl)-6-cyclobutyl-2-fluorophenoxy]pyrimidin-2-amine]?
A: Ki [1]: 11.7 nM; IC50 [2]: 129 nM

Q: Which Ki [1] does the source give for `Cc1cc(C)nc(Oc2c(C3CCC3)ccc(-c3cnc(N)nc3)c2F)n1` [Example 167, 5-{4-Cyclobutyl-3-[(4,6-dimethylpyrimidin-2-yl)oxy]-2-fluorophenyl}pyrimidin-2-amine] here?
A: The Ki was 14.7 nM.

Q: What about the IC50 [2] of the same compound?
A: The IC50 was 45.6 nM.

Q: With `CC(C)c1cc(Oc2c(C3CCC3)ccc(-c3cnc(N)nc3)c2F)nc(N)n1` [Example 168, 4-(3-(2-aminopyrimidin-5-yl)-6-cyclobutyl-2-fluorophenoxy)-6-isopropylpyrimidin-2-amine] as the compound, how does the Ki [1] read?
A: Its Ki is 2.8 nM.

Q: What about the IC50 [2] of the same compound?
A: The IC50 was 36.1 nM.

Q: Which results are given for `NC(=O)c1ccnc(Oc2c(C3CCC3)ccc(-c3cnc(N)nc3)c2F)n1` [Example 169, 2-[3-(2-Aminopyrimidin-5-yl)-6-cyclobutyl-2-fluorophenoxy]pyrimidine-4-carboxamide]?
A: Ki [1]: 205 nM; IC50 [2]: 268 nM

Q: What does the source list for `COc1cc(Oc2c(C3CCC3)ccc(-c3cnc(N)nc3)c2F)ncn1` [Example 170, 5-(4-cyclobutyl-2-fluoro-3-((6-methoxypyrimidin-4-yl)oxy)phenyl)pyrimidin-2-amine]?
A: Ki [1]: 90.3 nM; IC50 [2]: 1430 nM

Q: How did the Ki [1] turn out when `Nc1ncc(-c2ccc(C3CCC3)c(Oc3cc(O)ncn3)c2F)cn1` [Example 171, 6-[3-(2-Aminopyrimidin-5-yl)-6-cyclobutyl-2-fluorophenoxy]pyrimidin-4-ol trifluoroacetate] was run?
A: The Ki was 39.8 nM.

Q: And the IC50 [2]?
A: The IC50 was 252 nM.

Q: For `COc1c(C2CCC2)ccc(-c2ncc(N)nc2C#N)c1F` [Example 172, 6-amino-3-(4-cyclobutyl-2-fluoro-3-methoxyphenyl)pyrazine-2-carbonitrile], which Ki [1] is on record?
A: The Ki was 394 nM.

Q: What about the IC50 [2] of the same compound?
A: Its IC50 is 1660 nM.

Q: Which Ki [1] does the source give for `N#Cc1nc(N)cnc1-c1ccc(C2CCC2)c(OCc2cccc(C(=O)O)c2)c1F` [Example 174, 3-{[3-(5-Amino-3-cyanopyrazin-2-yl)-6-cyclobutyl-2-fluorophenoxy]methyl}benzoic acid] here?
A: Its Ki is 5.4 nM.

Q: What about the IC50 [2] of the same compound?
A: The IC50 was 1210 nM.

Q: With `COc1c(C2CCC2)ccc(-c2cnc3[nH]ccc3n2)c1F` [Example 175, 2-(4-cyclobutyl-2-fluoro-3-methoxyphenyl)-5H-pyrrolo[2,3-b]pyrazine] as the compound, how does the Ki [1] read?
A: The Ki was 100 nM.

Q: What about the IC50 [2] of the same compound?
A: Its IC50 is 1280 nM.

Q: Which Ki [1] does the source give for `Nc1ccc(-c2ccc(C3CCC3)c(OCc3ccc(C(=O)O)cc3)c2F)cn1` [Example 181, 4-((3-(6-Aminopyridin-3-yl)-6-cyclobutyl-2-fluorophenoxy)methyl)benzoic acid] here?
A: The Ki was 41 nM.

Q: What about the IC50 [2] of the same compound?
A: Its IC50 is 10000 nM.

Q: For `COc1c(C2CCC2)ccc(-c2cnc3[nH]cnc3c2)c1F` [Example 183, 6-(4-Cyclobutyl-2-fluoro-3-methoxyphenyl)-3H-imidazo[4,5-b]pyridine], which Ki [1] is on record?
A: Its Ki is 328 nM.

Q: And the IC50 [2]?
A: Its IC50 is over 10000 nM.

Q: Which results are given for `COc1c(C2CCC2)ccc(-c2cnc3c(c2)OCCN3)c1F` [Example 184, 7-(4-cyclobutyl-2-fluoro-3-methoxyphenyl)-3,4-dihydro-2H-pyrido[3,2-b][1,4]oxazine]?
A: Ki [1]: 14 nM; IC50 [2]: 831 nM

Q: Which Ki [1] does the source give for `Oc1c(C2CCC2)ccc(-c2cnc3c(c2)OCCN3)c1F` [Example 185, 6-cyclobutyl-3-(3,4-dihydro-2H-pyrido[3,2-b][1,4]oxazin-7-yl)-2-fluorophenol] here?
A: Its Ki is 19.6 nM.

Q: What about the IC50 [2] of the same compound?
A: The IC50 was 1010 nM.

Q: For `Fc1c(-c2cnc3c(c2)OCCN3)ccc(C2CCC2)c1OCc1ccccc1` [Example 186, 7-[3-(Benzyloxy)-4-cyclobutyl-2-fluorophenyl]-3,4-dihydro-2H-pyrido[3,2-b][1,4]oxazine], which Ki [1] is on record?
A: Its Ki is 20.5 nM.

Q: And the IC50 [2]?
A: Its IC50 is 531 nM.

Q: Which results are given for `N#Cc1cccc(COc2c(C3CCC3)ccc(-c3cnc4c(c3)OCCN4)c2F)c1` [Example 187, 3-{[6-Cyclobutyl-3-(3,4-dihydro-2H-pyrido[3,2-b][1,4]oxazin-7-yl)-2-fluorophenoxy]-methyl}-benzonitrile]?
A: Ki [1]: 12 nM; IC50 [2]: 355 nM

Q: With `CS(=O)(=O)c1cccc(COc2c(C3CCC3)ccc(-c3cnc4c(c3)OCCN4)c2F)c1` [Example 188, 7-(4-Cyclobutyl-2-fluoro-3-{[3-(methylsulfonyl)-benzyl]oxy}phenyl)-3,4-dihydro-2H-pyrido[3,2-b][1,4]oxazine] as the compound, how does the Ki [1] read?
A: The Ki was 8.6 nM.

Q: What about the IC50 [2] of the same compound?
A: Its IC50 is 1100 nM.

Q: `CS(=O)(=O)c1ccc(COc2c(C3CCC3)ccc(-c3cnc4c(c3)OCCN4)c2F)cc1` [Example 189, 7-(4-Cyclobutyl-2-fluoro-3-{[4-(methylsulfonyl)-benzyl]-oxy}-phenyl)-3,4-dihydro-2H-pyrido[3,2-b][1,4]oxazine] was tested. Which Ki [1] did it give?
A: Its Ki is 9.8 nM.

Q: And the IC50 [2]?
A: The IC50 was 1140 nM.

Q: `N#Cc1ccc(COc2c(C3CCC3)ccc(-c3cnc4c(c3)OCCN4)c2F)cc1` [Example 190, 4-{[6-Cyclobutyl-3-(3,4-dihydro-2H-pyrido[3,2-b][1,4]oxazin-7-yl)-2-fluorophenoxy]-methyl}-benzonitrile] was tested. Which Ki [1] did it give?
A: The Ki was 47.2 nM.

Q: What about the IC50 [2] of the same compound?
A: Its IC50 is 1060 nM.

Q: What does the source list for `Fc1c(-c2cnc3c(c2)OCCN3)ccc(C2CCC2)c1OCc1ccc(C(F)(F)F)cc1` [Example 191, 7-(4-Cyclobutyl-2-fluoro-3-{[4-(trifluoromethyl)benzyl]oxy}phenyl)-3,4-dihydro-2H-pyrido[3,2-b][1,4]oxazine]?
A: Ki [1]: 250 nM; IC50 [2]: 3430 nM

Q: Which Ki [1] does the source give for `NC(=O)c1cccc(COc2c(C3CCC3)ccc(-c3cnc4c(c3)OCCN4)c2F)c1` [Example 192, 3-{[6-Cyclobutyl-3-(3,4-dihydro-2H-pyrido[3,2-b][1,4]oxazin-7-yl)-2-fluorophenoxy]-methyl}-benzamide] here?
A: Its Ki is 5.3 nM.

Q: What about the IC50 [2] of the same compound?
A: The IC50 was 418 nM.

Q: `NC(=O)c1ccc(COc2c(C3CCC3)ccc(-c3cnc4c(c3)OCCN4)c2F)cc1` [Example 193, 4-{[6-Cyclobutyl-3-(3,4-dihydro-2H-pyrido[3,2-b][1,4]oxazin-7-yl)-2-fluorophenoxy]-methyl}-benzamide] was tested. Which Ki [1] did it give?
A: The Ki was 3.7 nM.

Q: And the IC50 [2]?
A: Its IC50 is 769 nM.

Q: With `Fc1c(-c2cnc3c(c2)OCCN3)ccc(C2CCC2)c1Oc1cccc(C(F)(F)F)n1` [Example 194, 7-(4-Cyclobutyl-2-fluoro-3-{[6-(trifluoromethyl)pyridin-2-yl]oxy}phenyl)-3,4-dihydro-2H-pyrido[3,2-b][1,4]oxazine] as the compound, how does the Ki [1] read?
A: Its Ki is 2.9 nM.

Q: What about the IC50 [2] of the same compound?
A: Its IC50 is 168 nM.

Q: Which results are given for `O=C(O)Cc1ccc(COc2c(C3CCC3)ccc(-c3cnc4c(c3)OCCN4)c2F)cc1` [Example 195, (4-{[6-cyclobutyl-3-(3,4-dihydro-2H-pyrido[3,2-b][1,4]oxazin-7-yl)-2-fluorophenoxy]methyl}phenyl)acetic acid]?
A: Ki [1]: 2.2 nM; IC50 [2]: 446 nM

Q: `O=C(O)c1ccc(COc2c(C3CCC3)ccc(-c3cnc4c(c3)OCCN4)c2F)cc1` [Example 196, 4-{[6-Cyclobutyl-3-(3,4-dihydro-2H-pyrido[3,2-b][1,4]oxazin-7-yl)-2-fluorophenoxy]methyl}benzoic acid] was tested. Which Ki [1] did it give?
A: Its Ki is 4.1 nM.

Q: And the IC50 [2]?
A: The IC50 was 871 nM.

Q: `Oc1c(C2CCC2)ccc(-c2cnc3c(c2)CCN3)c1F` [Example 199, 6-Cyclobutyl-3-(2,3-dihydro-1H-pyrrolo[2,3-b]pyridin-5-yl)-2-fluorophenol] was tested. Which Ki [1] did it give?
A: Its Ki is 24.2 nM.

Q: What about the IC50 [2] of the same compound?
A: The IC50 was 1060 nM.

Q: How did the Ki [1] turn out when `CC(C)(C)c1ccc(-c2cnc(N)cn2)c(F)c1O[Si](C)(C)C(C)(C)C` [Example 200, 5-(4-tert-Butyl-3-{[tert-butyl(dimethyl)silyl]oxy}-2-fluorophenyl)pyrazin-2-amine] was run?
A: The Ki was 155 nM.

Q: What about the IC50 [2] of the same compound?
A: The IC50 was 1360 nM.

Q: For `CC(C)(C)c1ccc(-c2cnc(N)cn2)c(F)c1Oc1ncccn1` [Example 201, 5-[4-tert-Butyl-2-fluoro-3-(pyrimidin-2-yloxy)phenyl]pyrazin-2-amine], which Ki [1] is on record?
A: The Ki was 8.5 nM.

Q: What about the IC50 [2] of the same compound?
A: The IC50 was 51.8 nM.
